Activity calls are given as the source filed them. The calls are words filed in the database; no cut-off is given here.
Tests used:
[1] = system: Cyberlindnera jadinii; assay: Antimicrobial activity against Candida utilis; assay type: functional
[2] = system: Radix natalensis; assay: Molluscicidal activity against Lymnaea natalensis after 2 hrs; assay type: functional
[3] = Acute toxicity in sc dosed mouse; assay type: organism-based; conditions: in vivo
[4] = system: Schistocerca gregaria; assay: Antifeedant activity in Schistocerca gregaria at 0.01% dry weight of fiber disc containing 5% sucrose by choice test; assay type: functional
[5] = system: Spodoptera littoralis; assay: Antifeedant activity in Spodoptera littoralis by choice test; assay type: functional
[6] = system: Spodoptera eridania; assay: Antifeedant activity in Spodoptera eridania by choice test; assay type: functional, organism-based
[7] = system: Manduca sexta; assay: Antifeedant activity in Manduca sexta by choice test; assay type: functional, organism-based
[8] = system: Biomphalaria glabrata; assay: Molluscicidal activity against Biomphalaria glabrata after 2 hrs; assay type: functional
[9] = system: Mucor mucedo; assay: Antimicrobial activity against Mucor mucedo; assay type: functional
[10] = system: Saccharomyces cerevisiae; assay: Antimicrobial activity against Saccharomyces cerevisiae; assay type: functional
[11] = system: KB; assay: Cytotoxicity against human KB cells; assay type: functional
[12] = system: Locusta migratoria; assay: Antifeedant activity in Locusta migratoria at 0.01% dry weight of fiber disc containing 5% sucrose by choice test; assay type: functional
[13] = system: Biomphalaria pfeifferi; assay: Molluscicidal activity against Biomphalaria pfeifferi after 2 hrs; assay type: functional
[14] = system: Spodoptera exempta; assay: Antifeedant activity in Spodoptera exempta by choice test; assay type: functional
[15] = system: Sclerotinia sclerotiorum; assay: Antimicrobial activity against Sclerotinia libertiana; assay type: functional
[16] = system: Epilachna varivestis; assay: Antifeedant activity in Epilachna varivestis by choice test; assay type: functional, organism-based
[17] = system: Schistocerca nitens; assay: Antifeedant activity in Schistocerca vaga by choice test; assay type: functional, organism-based

## CC1(C)CCC[C@@]2(C)[C@H]1CC=C(C=O)[C@]2(O)C=O [WARBURGANAL]
[1]
  Activity: 3.1 µg/mL
[2]
  Activity: 10 ppm
[3]
  LD50: 20.4 mg/kg
[4]
  Activity: 85%
[5]
  Activity: 10 ppm
[6]
  Activity: inactive
[7]
  Activity: inactive
[8]
  Activity: 5 ppm
[9]
  Activity: 100 µg/mL
[10]
  Activity: 12.5 µg/mL
[11]
  Activity: 0.01 µg/mL
[12]
  Activity: 85%
[13]
  Activity: 5 ppm
[14]
  Activity: 0.1 ppm
[15]
  Activity: 50 µg/mL
[16]
  Activity: inactive
[17]
  Activity: inactive

Source: ChEMBL document CHEMBL1151380, “Recent Studies on Bioactive Compounds From Plants” (J Nat Prod, 1982)
